Test results from PubChem BioAssay (NCI).
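1) Cells in 96-well plates. 2) Compound, 48 h, 5 concentrations. 3) Linear interpolation between surrounding doses. 4) Unreached endpoint = highest concentration. Abbreviation: GI50, concentration required for 50% inhibition of growth. TGI denotes the concentration required for complete inhibition of growth.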

Columns and labels:
Assay in all cases: NCI-60 cell line screen, 48 h
A498 renal = tested on: A498 renal
ACHN renal = tested on: ACHN renal
CAKI-1 renal = tested on: CAKI-1 renal
HOP-62 NSCLC = tested on: HOP-62 NSCLC
K-562 leukemia = tested on: K-562 leukemia
MALME-3M melanoma = tested on: MALME-3M melanoma
OVCAR-5 ovarian = tested on: OVCAR-5 ovarian
SF-539 CNS = tested on: SF-539 CNS
SN12C renal = tested on: SN12C renal
U251 CNS = tested on: U251 CNS

Row | SMILES | GI50 (A498 renal) [nM] | TGI (A498 renal) [µM] | GI50 (ACHN renal) [nM] | TGI (ACHN renal) [µM] | GI50 (CAKI-1 renal) [nM] | TGI (CAKI-1 renal) [µM] | GI50 (HOP-62 NSCLC) [nM] | TGI (HOP-62 NSCLC) [µM] | GI50 (K-562 leukemia) [nM] | TGI (K-562 leukemia) [µM] | GI50 (MALME-3M melanoma) [µM] | TGI (MALME-3M melanoma) [µM] | GI50 (OVCAR-5 ovarian) [µM] | TGI (OVCAR-5 ovarian) [µM] | GI50 (SF-539 CNS) [nM] | TGI (SF-539 CNS) [µM] | GI50 (SN12C renal) [nM] | TGI (SN12C renal) [µM] | GI50 (U251 CNS) [nM] | TGI (U251 CNS) [µM]
1 | COc1ccc(-c2oc3ncnc(N)c3c2-c2ccc(NC(=O)Nc3cc(C(F)(F)F)ccc3F)cc2)cc1 | 329 | 2.55 | 950 | 7.89 | 838 | 6.69 | 953 | 3.38 | 1190 | 16.6 | 1.81 | 6.22 | 3.15 | 8.82 | 1550 | 5.41 | 828 | 3.75 | 997 | 3.83
2 | NC1=C(O)/C(=N/NS(=O)(=O)c2ccccc2)C(c2ccc3c(c2)OCO3)O1 (stereo not given) | – | > 100 | – | > 100 | – | > 100 | – | > 100 | – | > 100 | – | > 100 | – | > 100 | – | > 100 | – | > 100 | – | > 100
3 | CC1(C)N=C(N)N=C(N)N1c1cccc(CCCCc2ccc(Cl)c(S(=O)(=O)F)c2)c1 | 16400 | 52.9 | 20900 | > 100 | 21300 | > 100 | 6340 | 21.2 | 521 | 15.2 | 9.71 | 28.3 | 6.02 | 22.1 | 504 | 13 | 967 | 16.4 | 655 | 21.3
4 | COc1ccc(/C=C/c2cc(OC)c(OC)c(OC)c2)cc1OC | – | > 100 | – | > 100 | – | > 100 | – | > 100 | – | > 100 | – | > 100 | – | > 100 | – | > 100 | – | > 100 | – | > 100
5 | CCCC(=O)Oc1ccc(/C=N/NC(N)=S)nc1 | – | > 100 | – | > 100 | – | > 100 | – | > 100 | – | > 100 | – | > 100 | – | > 100 | – | > 100 | – | > 100 | – | > 100
6 | C=CCN=C1NC(=O)C(CC(=O)Nc2cccc(Cl)c2)S1 (stereo not given) | – | > 100 | – | > 100 | – | > 100 | – | > 100 | – | > 100 | – | > 100 | – | > 100 | – | > 100 | – | > 100 | – | > 100
7 | CC(=O)N(N=O)c1ccc(N(N=O)C(C)=O)cc1 | – | > 100 | – | > 100 | – | > 100 | – | > 100 | – | > 100 | – | > 100 | – | > 100 | – | > 100 | – | > 100 | – | > 100
8 | COc1ccc(Cc2ccc3[nH]c(=O)cc(C)c3c2)cc1S(=O)(=O)O | – | > 100 | – | > 100 | – | > 100 | – | > 100 | – | > 100 | – | > 100 | – | > 100 | – | > 100 | – | > 100 | – | > 100
9 | Cc1cc(C)c([I+]c2c(C)cc(C)cc2C)c(C)c1 | 1560 | 3.64 | 1170 | 2.47 | 1430 | 4.15 | 841 | 2.16 | 319 | 1.43 | 0.37 | 1.46 | 0.781 | 2.09 | 891 | 2.16 | 301 | 1.21 | 320 | 1.38
10 | O=[N+]([O-])c1cc(I)cc(/C=N/NS(=O)(=O)c2ccc(F)cc2)c1O | – | 91.6 | – | 81.5 | – | 63.1 | – | 55.8 | – | 52.7 | – | 52.4 | – | > 100 | – | 55.8 | – | 54.1 | – | 59.9
11 | O=C(O)C(Cc1ccccc1)N=Cc1nc(-c2ccccc2)oc1O (stereo not given) | – | > 100 | – | > 100 | – | > 100 | – | > 100 | – | > 100 | – | > 100 | – | > 100 | – | > 100 | – | > 100 | – | > 100
12 | CC(=O)OC1CC2C(C)(C)C(=O)C=C[C@]2(C)C2CCC3(C)C(c4ccoc4)C(=O)C4OC43[C@]12C (stereo not given in full) | – | 42.5 | – | 85 | – | > 100 | – | 57.9 | – | 32.6 | – | 40.3 | – | 60.9 | – | 40.2 | – | 30.7 | – | 41.6
13 | OCC1CC2C=CCC(C2)C1 (stereo not given) | – | > 100 | – | > 100 | – | > 100 | – | > 100 | – | > 100 | – | > 100 | – | > 100 | – | > 100 | – | > 100 | – | > 100
14 | CO[C@H]1/C=C/O[C@@]2(C)Oc3c(C)c(O)c4c(O)c(c(/C=N/N5C(C)CN(Cc6ccc(C#N)cc6)CC5C)c(O)c4c3C2=O)NC(=O)/C(C)=C\C=C\[C@H](C)[C@H](O)[C@@H](C)[C@@H](O)[C@@H](C)[C@H](OC(C)=O)[C@@H]1C (stereo not given in full) | 7060 | 14 | 7890 | 16.2 | 7650 | 17.8 | 9760 | 20.6 | 6710 | 25.3 | 8.56 | 20.5 | 8.88 | 18.1 | 6220 | 13 | 6730 | 13.6 | 6040 | 12.2
15 | CC(C)(C)OC(=O)NC(Cc1ccccc1)C(=S)N1CCCC1 (stereo not given) | – | > 100 | – | > 100 | – | > 100 | – | 91 | – | > 100 | – | > 100 | – | > 100 | – | > 100 | – | > 100 | – | > 100
16 | COc1cc(OCCCN2CCCC2)ccc1Nc1ncc(Cl)c(Nc2ccccc2P(C)(C)=O)n1 | 175 | 1.12 | 2460 | 16.7 | 2020 | 5.64 | 2110 | 12.5 | 4430 | 28.5 | 6.06 | 22.6 | 1.07 | 22.5 | 3490 | 12.8 | 2520 | 25.5 | 5430 | 19.8
17 | Oc1ccc(Br)cc1C=NC1CCCCC1 | – | > 100 | – | > 100 | – | > 100 | – | > 100 | – | > 100 | – | > 100 | – | > 100 | – | > 100 | – | 19.5 | – | > 100
